The subject of one assay is acetylcholinesterase. In words: Acetylcholinesterase activity (Ellman) in extracts of protoscoleces, metacestodes and germinal cells. It counts as biochemical, Echinococcus multilocularis. Conditions: extract; thiacloprid 5 μM, 37 °C 10 min; BW284c51 positive control. The procedure: The effects of thiacloprid on the acetylcholinesterase activity of E. multilocularis protoscoleces, metacestodes and germinal cells were determined according to a previously described method. The protoscoleces, metacestode and germinal cells were washed twice with PBS and homogenized with an electric homogenizer in precooled PBS. Centrifugation of the homogenates was performed at 100,000×g for 30 min. The protein concentration of the supernatant was determined by the modified Lowry method according to the instructions, and the concentration was adjusted to 2 mg/ml. Thiacloprid (5 μM) was added to the extract and incubated at 37 °C for 10 min. The extract was supplemented with 0.1% DMSO as control. Subsequently, acetylcholinesterase activity was assessed according to Ellman’s procedure using a microplate with 260 µl of 0.1 M PBS buffer pH 8.0, 10 µl of 10 mM dithiobisnitrobenzoic acid solution, 2.5 µl of 75 mM substrate (acetylthiocholine iodide) and 25 µl of the sample treated with thiacloprid. The OD increment was measured at 412 nm using an Infinite M200 PRO reader (Tecan). Each experiment was conducted three times. BW284c51 (CAS number: 402-40-4, Sigma) was used as a positive control.
In general terms: Ellman's reagent forms a yellow product with free thiols.

Assay [1] relates to E. multilocularis metacestodes. The assay can be described thus: PGI assay (phosphoglucose isomerase release) on metacestode vesicles. It counts as cell-based, Echinococcus multilocularis. As to conditions: Echinococcus multilocularis, 120 h, read-out: EC50 against E. multilocularis metacestode by the PGI assay. Here is the method: The efficacy of thiacloprid against the E. multilocularis metacestode was evaluated by applying a phosphoglucose isomerase (PGI) assay that measures the release of the enzyme phosphoglucose isomerase upon physical impairment of metacestodes. In brief, medium without phenol red (DMEM, 1% penicillin/streptomycin sulfate, 2 mM L-glutamine) was added to the same volume of vesicles and distributed to 48-well (12–15 per vesicles) plates. Subsequently, metacestodes were incubated for 5 days with different concentrations (0, 0.06, 1.2, 2.5, 5, 10, 20, 40, 80 and 160 μM) of thiacloprid or praziquantel (PZQ), after which PGI release was quantified exactly as described in Stadelmann et al.. Triton X-100 (0.1% in PBS) was applied as a positive control (maximal release of vesicle fluid). Each condition was tested in biological triplicate. After 5 days of incubation, 200 μl medium supernatant was collected from each well and stored at − 20 °C until further measurements were performed. PGI measurements were performed as described earlier, except that an Infinite M200 PRO reader (Tecan, Männedorf, Switzerland) was used to measure the increase in absorbance at 340 nm. PGI activity was calculated using the EC50 calculator (https://www.aatbio.com/tools/ec50-calculator) from the linear regression of the enzyme reaction over time and presented as a percentage relative to the values obtained by treatment of vesicles with 0.1% Triton X-100.

For assay [2], the system named is Reuber rat hepatoma (RH) cells. The assay can be described thus: alamarBlue cytotoxicity assay, RH cells. It counts as cell-based. As to conditions: 120 h, 5 days. Here is the method:
(§1) An alamarBlue assay was used to assess the toxicity of thiacloprid to confluent and pre-confluent mammalian cells in vitro [29]. Human foreskin fibroblasts (HFF, Procell) and rat hepatoma cells (RH, Procell) were seeded into 96-well cell culture plates in DMEM supplemented with 10% FBS and 1% penicillin–streptomycin at 37 °C and 5% CO2. For detecting the growth inhibitory effects of confluent cells, HFF and RH cells were seeded at 10,000 cells per well and 50,000 cells per well, respectively. After overnight culture, thiacloprid or PZQ was added and diluted in serial concentrations (0, 0.6, 1.2, 2.5, 5, 10, 20, 40, 80 and 160 μM). For detecting growth inhibitory effects on proliferating cells, cells were seeded at 1000 (HFF) and 5000 (RH) cells per well. Thiacloprid was added after 5 h of cell attachment. To measure the viability of the cells after treatment for 5 days, the alamarBlue assay was employed and viability calculated as described previously.
(In general: The colour change of resazurin is a common sign of viable cells or microbes.)

Assay [3] concerns Human foreskin fibroblasts (HFF). The assay can be described thus: alamarBlue cytotoxicity assay, HFF. It counts as cell-based. Conditions: Fibroblast, 120 h, 5 days. The procedure: as §1
Assay [4] relates to E. multilocularis germinal cells. The assay can be described thus: CellTiter-Glo viability assay on germinal cells. It counts as cell-based, Echinococcus multilocularis. As to conditions: Echinococcus multilocularis, 120 h; 5 days; CellTiter-Glo; read-out: IC50 against germinal cells. Here is the method: To evaluate the activity of thiacloprid against parasitic stem cells, germinal cells from in vitro metacestode vesicles were investigated as described by Spiliotis et al.. Briefly, 20 units of cells were distributed into a black 384-well plate. Different concentrations of thiacloprid or PZQ (0, 0.06, 1.2, 2.5, 5, 10, 20, 40, 80 and 160 μM) were added to the cells. After culture at 37 °C for 5 days under a humid nitrogen atmosphere, 25 μl CellTiter-Glo containing 1% Triton X-100 was added. The plates were incubated at room temperature in the dark for 15 min. After the total destruction of the cellular aggregates, luminescence was measured using an Infinite M200 PRO reader (Tecan), and 0 μM values were set to 100% viability. The IC50 values were calculated using an online IC50 calculator after logit-log transformation. Four independent replicates were conducted.

Assay [5] concerns E. multilocularis metacestodes. In words: In vivo treatment of mice experimentally infected with E. multilocularis metacestodes. Further details: species or system Echinococcus multilocularis. Here is the method: (§2) In vitro-grown metacestode vesicles were pressed through a 500 µm mesh and washed three times with sterile PBS. The parasite tissue was then taken up in an equal volume of sterile PBS. Each mouse was intraperitoneally injected with 200 μl suspension. Seven mice were injected with 200 μl PBS as the control group. Twenty-eight infected mice were randomly distributed into four groups (7 mice/group): the untreated group was not administered any drug; the ABZ group was treated with ABZ orally (100 mg/kg/day); and the Thia15 group and Thia30 group received thiacloprid orally (15 mg/kg/day and 30 mg/kg/day). Treatments of mice started 2 weeks post-infection, and treatments were administered daily for 6 weeks. After 6 weeks of treatment, whole blood via the orbital sinus was collected from mice and the animals were euthanized by CO2. Blood samples were incubated at 37 °C for 1 h and centrifuged at 3500 rpm for 10 min at 4 °C. The serum was harvested and stored at –20 °C for IL-2, IL-4, IL-10 and IgE detection. All metacestode tissues were collected, and the total wet weight of metacestodes per mice was determined. Furthermore, the content of cytokines in microcyst fluid was detected by enzyme-linked immunosorbent assay (ELISA). Several metacestode tissue specimens were processed for transmission electron microscopy (TEM) and histopathological experiments.
Tissues from experimental animals were washed in PBS and fixed in 4% paraformaldehyde at room temperature for […]. On the next day, they were dehydrated, embedded, and sliced into 5-μm sections. After dewaxing and dehydrating, sections were stained with hematoxylin for 2–5 min, and re-stained with eosin for 15 s. They were sealed with neutral gum and observed under a BX51 microscope (Olympus, Tokyo, Japan).
A Periodic Acid Schiff Stain Kit (Solarbio, Beijing, China) was used to show the PAS-positive laminated layer characteristic of E. multilocularis metacestodes. The section (5 μm) was dewaxed in xylene and rehydrated in 100%, 95%, 80%, and 75% alcohol baths. Staining was then carried out according to the kit instructions.

Assay [6] has as its system IL-2, IL-4, IL-10 and IgE. The assay can be described thus: ELISA of cytokines and IgE in infected mice. Conditions: infected BALB/c mice, 6 weeks oral treatment. It counts as in vivo. The procedure: as §2
ELISA was employed to detect serum IL-2, IL-4, IL-10 and IgE following the manufacturer's instructions. Mouse collagen I and collagen III ELISA kits were used to measure the levels of collagen I and collagen III in the cell culture supernatant after intervention with thiacloprid. All ELISA kits were provided by Elabscience Biotechnology Co., Ltd., Wuhan, China. The OD value at 450 nm was read with a Tecan Infinite M200 PRO enzyme reader (Männedorf, Switzerland), and the concentration was calculated according to the standard curve.
(In general: An ELISA detects its analyte on a solid surface through an enzyme-linked reagent.)

Assay [7] relates to collagen I and III, MMP1, MMP3, MMP9, MMP13. In words: Collagen and MMP expression in the host-lesion microenvironment (TEM, Sirius red, qPCR, western blot). Conditions: infected BALB/c mice, 6 weeks oral treatment. It counts as in vivo. The procedure: The metacestodes were fixed with 4% paraformaldehyde and embedded in paraffin to make sections with a thickness of […]. The sections were dewaxed with water, stained with Picrosirius red for 10 min, rinsed and dehydrated with anhydrous ethanol, and sealed with neutral balsam after the xylene was transparent. Each section of 400× visual field image was randomly collected. The ratio of the area of all images collected to the area of the visual field was measured using the ImageJ analysis system, and the percentage of collagen fibre was calculated.
The variations in the microstructure of the protoscoleces or metacestodes were observed under an electron microscope. […] They were washed twice in PBS and then fixed for 3 h with 2.5% glutaraldehyde (pH = 7.2); next, they underwent 2 h post-fixation in 2% OsO4 (SPI-CHEM, West Chester, PA, USA). Subsequently, the samples were washed in double-distilled water and treated with 1% uranyl acetate for 25 min. After the samples were washed again in double-distilled water, dehydration was conducted in ethanol at continuous gradients (30–50–70–80–90–95–100%) over a period of 10 min. For SEM analysis, the dehydrated samples were dipped into hexamethyldisiloxane and then air-dried in a fume hood. The sample was observed under a Hitachi SU8100 scanning electron microscope (Tokyo, Japan) after gold spraying. For TEM analysis, the dehydrated samples passed through a dehydrating agent, and an epoxy resin (SPI-CHEM) permeated and polymerized at 60 °C overnight. A 50-nm ultra-thin section was prepared and then loaded on a 300-mesh copper grid. It was stained with uranyl acetate and lead citrate (SPI-CHEM). The sample was observed under a Hitachi HT7700 transmission electron microscope. To reduce the bias, electron microscopy was observed by professionals in the case of an unknown group.
Total RNA was extracted with TRIzol Reagent (Thermo Fisher Scientific, Waltham, MA, USA) according to the manufacturer’s instructions. The purity and concentrations of RNA were quantified using NanoDrop 2000 absorbance measurements at 260/280 nm. Total RNA was converted into cDNA sequences using the FastKing gDNA Dispelling RT SuperMix Kit (TIANGEN Biotech), and RT-qPCR was performed using the RealUniversal Color PreMix Kit (TIANGEN Biotech) on an ABI QuantStudio 5 system (Applied Biosystems, Waltham, MA, USA). The specific primers are shown in Additional file 4: Table S1. The PCR cycling conditions were as follows: pre-denaturation at 95 °C for 15 min followed by 40 cycles at 95 °C for 10 s and 60 °C for 34 s. The relative mRNA expression levels were quantified using the 2^−ΔΔCT method. RPS18 served as an internal control.
A total protein extraction kit (Solarbio) was used to extract cell or tissue total protein. The protein concentration was determined by the protein quantitative assay kit (Thermo Fisher Scientific). Then, electrophoresis was performed with 20–50 μg of protein sample. The protein was separated by sodium dodecyl sulfate polyacrylamide gel electrophoresis (SDS-PAGE) and transferred to a 0.22 μm PVDF membrane (Merck Millipore, Darmstadt, Germany). The PVDF membrane was blocked with 5% of nonfat powdered milk in Tris-buffered saline Tween 20 (TBST) for 1 h at room temperature. The membrane incubation with primary antibodies was performed at 4 °C overnight. The antibody information is listed in Additional file 5: Table S2. The membrane was washed with TBST and incubated with HRP-labeled secondary antibodies (1:5000, Abclonal, Wuhan, China) for 1 h at room temperature. Blotted membranes were visualized using enhanced chemiluminescence reagents (Thermo Fisher Scientific). Protein expression was depicted as the intensity of each protein relative to that of β-actin using ImageJ software.

Where two headings read alike, the source gives them in different places.

For the compound `C=CC[N+](C)(C)c1ccc(CCC(=O)CCc2ccc([N+](C)(C)CC=C)cc2)cc1.[Br-].[Br-]` [BW284c51], in the assay with acetylcholinesterase, the “Acetylcholinesterase activity in protoscoleces, metacestode vesicles and germinal cells” value is on record as “inhibited”.
With `O=C(C1CCCCC1)N1CC(=O)N2CCc3ccccc3C2C1` (stereo not drawn) [PZQ, praziquantel], the 50% effective concentration (EC50) (as a rule, the concentration at which the effect is half-maximal) in assay [1] was 7.41 ± 2.09 µM. The IC50 (usually the concentration at which inhibition is half-maximal) in assay [2] (confluent cells, read-out: IC50 on confluent RH cells) was 25.3 ± 6.32 µM; in assay [2] (pre-confluent cells, read-out: IC50 on pre-confluent RH cells), 11.6 ± 3.52 µM; in assay [3] (confluent cells, read-out: IC50 on confluent HFF) it was 53.2 ± 11.1 µM; in assay [3] (pre-confluent cells, read-out: IC50 on pre-confluent HFF), 6.71 ± 1.88 µM; in assay [4], 2.59 ± 0.33 µM.
Regarding `CCCSc1ccc2nc(NC(=O)OC)[nH]c2c1` [ABZ, albendazole], the “HE staining of metacestodes from treated mice” value in assay [5] (6 weeks oral treatment, thiacloprid 15 or 30 mg/kg/day, ABZ 100 mg/kg/day) is recorded as “germinal cells could still be observed”. The “Wet weight of the metacestodes” value in assay [5] (infected BALB/c mice, ABZ 100 mg/kg/day orally, 6 weeks, untreated 6.49 ± 1.18 g) turned out to be 1.85 ± 0.94 g. Besides, in assay [6], the “Expression of IL-2, IL-4 and IL-10 in serum compared with the untreated group” value is “consistent variations”; the “Expression of IgE in serum compared with the untreated group” value is “consistent variations”. In addition, the “Collagen fiber deposition in the host-lesion microenvironment (TEM)” value in assay [7] is on record as “can promote”. The “mRNA expression of MMP1, MMP3, MMP9 and MMP13 in the microenvironment” value in assay [7] (qPCR) is given as “significantly inhibited”. The “mRNA and protein expression levels of collagen I and III in the host-lesion microenvironment” value in assay [7] (qPCR, western blot) is listed as “increased”. Also, the “Protein expression levels of MMP1, MMP3, MMP9 and MMP13” value in assay [7] (western blot) is reported as “decreased”.

For the origin of these results see paper PMC8419995, “In vitro and in vivo efficacy of thiacloprid against Echinococcus multilocularis” (Parasites & Vectors, 2021).
